“Also recorded” adds a separate entry of the source. Like-named read-outs stand apart in the source and are kept apart here.
Tests used:
[1] = biological target: human pol sigma (pol sigma-1) (Homo sapiens, UniProt Q5XG87); test: inhibition of human pol sigma; type: biochemical
[2] = biological target: rat polymerase β (Rattus norvegicus, UniProt P06766); type: biochemical
Protocol: To a 50 μL of 62.5 mM 2-amino-2-methyl-1,3-propanediol buffer, pH 8.6, containing 10 mM MgCl2, 1 mM DTT, 100 μg/mL BSA, 6.25 μM dNTPs including 0.04 Ci/mmol [^3H]dTTP, and 0.25 mg/mL activated calf thymus DNA was added 6 μL of a solution containing each test compound and 4 μL of recombinant rat liver DNA polymerase β preparation (6.9 units, 4.8×10^4 units/mg). After incubation at 37° C. for 60 min, the radiolabeled DNA product was collected on DEAE-cellulose paper (DE-81), dried, and rinsed successively with 0.4 M K2HPO4, pH 9.4, and 95% ethanol for radioactivity determination.

[3] = biological target: T1, yeast polymerase σ (Trf4, pol sigma-I) (Saccharomyces cerevisiae, UniProt P53632); test: in vitro primer extension assay (5'-32P dT16 primer / poly dA template) for polymerase σ inhibition; type: biochemical, yeast (S. cerevisiae); settings: for inhibition of polymerase σ in primer extension assay (FIG. 3), in words: 10 μM test compound, 5 min, dTTP, Mg2+; for concentration level of yeast pol sigma inhibition, in words: yeast pol sigma in vitro
T1 construct: His6 (peptide tag containing six histidines); made in house; host or cells: E. coli
T1 sequence (P53632 1-584): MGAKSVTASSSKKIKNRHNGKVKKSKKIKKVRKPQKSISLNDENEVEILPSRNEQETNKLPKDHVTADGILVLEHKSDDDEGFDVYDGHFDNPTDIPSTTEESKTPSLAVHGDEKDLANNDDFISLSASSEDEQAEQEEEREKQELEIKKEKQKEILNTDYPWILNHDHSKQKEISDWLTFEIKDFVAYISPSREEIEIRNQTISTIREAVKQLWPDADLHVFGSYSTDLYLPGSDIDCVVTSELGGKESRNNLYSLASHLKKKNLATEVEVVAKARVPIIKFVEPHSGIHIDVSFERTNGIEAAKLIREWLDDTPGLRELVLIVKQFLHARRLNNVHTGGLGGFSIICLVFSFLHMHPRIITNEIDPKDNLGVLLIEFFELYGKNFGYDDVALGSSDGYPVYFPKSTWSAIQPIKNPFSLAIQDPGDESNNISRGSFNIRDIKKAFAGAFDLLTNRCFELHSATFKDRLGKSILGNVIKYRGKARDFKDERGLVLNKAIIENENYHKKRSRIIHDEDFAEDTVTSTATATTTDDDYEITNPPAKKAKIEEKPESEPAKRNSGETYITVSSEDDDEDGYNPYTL
Protocol: Due to the predicted structural similarity between pol sigma and pol β (Aravind and Koonin, 1999, Nucleic Acids Research 27: 1609-1618) several known β polmerase inhibitors were tested to determine if they would inhibit pol sigma in vitro. […] The template primer was incubated in the presence of dTTP, Mg^2+ and 10 μM test compound for 5 min. […] Lane 1 of FIG. 3 is a control with only the DMSO solvent added to the poly dA/ oligo dT assay, the remaining lanes represent reactions run in the presence of one of the β polmerase inhibitors.
The assay system that has been employed to date employs a dT16 primer annealed to a poly dA template (average length 282 nucleotides). Primer elongation as a consequence of the addition of T residues (in a distributive fashion) has been monitored by polyacrylamide gel electrophoresis. For purposes of screening for inhibitors a variant of the DNA polymerase β this system will be used as follows: […]

[4] = test system: P388D1 cells; test: P388D1 cell viability, camptothecin and ursolic acid alone or together (Trypan Blue, hemacytometer); settings: 6 hr incubation, 1 μM camptothecin, 0.5 μM ursolic acid
Description: (§1) Viable cells were scored by the use of a hemacytometer plate after straining with Trypan Blue.

[5] = as above; settings: mouse, % viability, 6 hr incubation, 1 μM camptothecin, 0.5 μM ursolic acid
Description: as §1

[6] = test system: TRF4-deficient yeast (trf4 single mutants); test: yeast spot growth assay, sensitivity to camptothecin; type: cell-based, S. cerevisiae (yeast)
Protocol: Spots represent serial 10-fold dilutions of saturated yeast cultures spotted onto Petri plates and incubated at 30° C. for 2 days in the presence of 10 ug/ml of camptothcin (FIG. 1A) or absence of drug (FIG. 1B).

human pol sigma (pol sigma-1), sequence (Q5XG87 whole entry): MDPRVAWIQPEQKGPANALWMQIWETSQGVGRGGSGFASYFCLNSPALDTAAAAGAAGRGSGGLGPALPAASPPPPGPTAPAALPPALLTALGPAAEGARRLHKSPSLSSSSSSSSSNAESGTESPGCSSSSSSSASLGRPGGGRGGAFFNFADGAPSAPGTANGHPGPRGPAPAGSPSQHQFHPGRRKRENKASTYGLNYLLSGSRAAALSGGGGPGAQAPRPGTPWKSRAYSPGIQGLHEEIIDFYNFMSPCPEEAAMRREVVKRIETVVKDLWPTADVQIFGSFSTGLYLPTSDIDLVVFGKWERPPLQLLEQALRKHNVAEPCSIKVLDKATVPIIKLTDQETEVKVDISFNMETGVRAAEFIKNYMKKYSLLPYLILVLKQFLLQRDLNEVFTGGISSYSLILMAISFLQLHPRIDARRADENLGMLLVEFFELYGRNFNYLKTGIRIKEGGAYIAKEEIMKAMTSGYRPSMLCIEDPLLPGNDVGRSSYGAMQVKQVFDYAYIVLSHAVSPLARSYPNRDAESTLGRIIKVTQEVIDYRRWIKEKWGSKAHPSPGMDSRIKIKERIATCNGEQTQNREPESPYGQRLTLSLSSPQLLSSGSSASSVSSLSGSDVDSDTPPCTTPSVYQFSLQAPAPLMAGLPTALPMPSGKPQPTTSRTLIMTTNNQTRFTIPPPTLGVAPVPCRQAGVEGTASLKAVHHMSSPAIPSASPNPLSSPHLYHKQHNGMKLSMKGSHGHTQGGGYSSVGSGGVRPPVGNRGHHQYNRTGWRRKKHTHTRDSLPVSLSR

| SMILES | inhibitory activity against human pol sigma, in words [1] | rank order of potencies for rat polymerase β ([2]; rat polymerase β) | IC50 [3] [µM] | pol sigma polymerase activity observed in presence of compound ([3]; 10 uM concentration) | inhibition of polymerase σ in primer extension assay (FIG. 3), in words [3] | concentration level of yeast pol sigma inhibition, in words [3] | rank order of potencies for rat polymerase β [2] | toxicity to P388D1 cells, in words [4] | viability at 6 h ([5]; P388D1 cells (suspension culture), Experiment 1, P388D1 cells) [%] | viability at 6 h ([5]; P388D1 cells (suspension culture), Experiment 2, P388D1 cells) [%] | sensitivity of pol sigma-deficient yeast relative to wild-type strains, in words ([6]; 10 ug/ml, 30° C., 2 days, trf4::HIS3 and mcd1-1) | sensitivity of yeast cells lacking TRF4 to the agent relative to wild type ([6]; yeast cells lacking TRF4 (FIG. 1)) | viability at 6 h ([5]; Experiment 1, P388D1 cells) [%] | viability at 6 h ([5]; Experiment 2, P388D1 cells) [%] | concentration level of yeast pol sigma inhibition, in words ([3]; listed as Ursolic acid) |
| --- | --- | --- | --- | --- | --- | --- | --- | --- | --- | --- | --- | --- | --- | --- | --- |
| C/C(=C\CC[C@@H](C)[C@@H]1CC[C@]2(C)C3=CC[C@H]4C(C)(C)[C@@H](O)CC[C@]4(C)[C@H]3CC[C@@]12C)C(=O)O [(24E)-3beta-hydroxy-7,24-euphandien-26-oic acid] | inhibitory activity; also recorded: active, albeit only at micromolar concentrations; also recorded: also work to inhibit human pol sigma-1 | ursolic acid >betulinic acid >> 3β-hydroxy-7,24-euphandien-26-oic acid | ~0.5 | no activity whatsoever | most potent of the species tested | nanomolar level inhibitor | – | – | – | – | – | – | – | – | – |
| C=C(C)[C@@H]1CC[C@]2(C(=O)O)CC[C@]3(C)[C@H](CC[C@@H]4[C@@]5(C)CC[C@H](O)C(C)(C)[C@@H]5CC[C@]43C)[C@@H]12 [betulinic acid] | – | – | – | – | showing activity | micromolar concentrations | ursolic acid >betulinic acid >> 3β-hydroxy-7,24-euphandien-26-oic acid | – | – | – | – | – | – | – | – |
| CC[C@@]1(O)C(=O)OCc2c1cc1n(c2=O)Cc2cc3ccccc3nc2-1 [camptothecin] | – | – | – | – | – | – | – | minimal toxicity | 84 | 77 | hypersensitive | 10,000 fold | – | – | – |
| C[C@H]1[C@H](C)CC[C@]2(C(=O)O)CC[C@]3(C)C(=CC[C@@H]4[C@@]5(C)CC[C@H](O)C(C)(C)[C@@H]5CC[C@]43C)[C@H]12 [ursolic acid] | inhibitory activity | – | – | – | showing activity | micromolar concentrations | ursolic acid >betulinic acid >> 3β-hydroxy-7,24-euphandien-26-oic acid | minimal toxicity | – | – | – | – | 88 | 77 | inhibits yeast polymerase σ |

Source: patent US20040029906A1, “Inhibitors of dna polymerase sigma” (priority 2003, published 2004)
